Source: article PMC8371902, “Phase 1 study of M2698, a p70S6K/AKT dual inhibitor, in patients with advanced cancer” (Journal of Hematology & Oncology, 2021)

Assays:
[1] = in vivo
From the text: A monotherapy population PK model was developed, consisting of a two-compartment model with four absorption transit compartments and first-order elimination (Additional file 1: Table S5).

[2] = system: advanced metastatic cancer; assay: Antitumor activity: tumor response (RECIST 1.1) and progression-free survival; assay type: in vivo, human
Experimental: Tumor response was assessed using RECIST 1.1. As for drugs with cytostatic antitumor activity, disease control rate was defined as the sum of stable disease (SD) and objective response rates; SD was considered clinically beneficial. Progression-free survival (PFS) was measured from treatment initiation until disease progression or death and was estimated using the Kaplan–Meier method.

[3] = All patients, M2698 monotherapy 15 mg, N=3
[4] = All patients, M2698 monotherapy 30 mg, N=3
[5] = All patients, M2698 monotherapy 60 mg, N=6
[6] = All patients, M2698 monotherapy 75 mg, N=4
[7] = All patients, M2698 monotherapy 110 mg, N=4
[8] = All patients, M2698 monotherapy 160 mg, N=6
[9] = All patients, M2698 monotherapy 200 mg, N=3
[10] = All patients, M2698 monotherapy 240 mg, N=17
[11] = All patients, M2698 monotherapy 320 mg, N=12
[12] = All patients, M2698 monotherapy 380 mg, N=4
[13] = All patients, M2698 monotherapy, Total of all dose levels, N=62
[14] = PAM+ patients with confounding markers, M2698 monotherapy 15 mg, N=1
[15] = PAM+ patients with confounding markers, M2698 monotherapy 60 mg, N=2
[16] = PAM+ patients with confounding markers, M2698 monotherapy 75 mg, N=1
[17] = PAM+ patients with confounding markers, M2698 monotherapy 110 mg, N=1
[18] = PAM+ patients with confounding markers, M2698 monotherapy 160 mg, N=2
[19] = PAM+ patients with confounding markers, M2698 monotherapy, Total of all dose levels, N=7
[20] = PAM+ patients without confounding markers, M2698 monotherapy 15 mg, N=2
[21] = PAM+ patients without confounding markers, M2698 monotherapy 30 mg, N=2
[22] = PAM+ patients without confounding markers, M2698 monotherapy 60 mg, N=2
[23] = PAM+ patients without confounding markers, M2698 monotherapy 75 mg, N=1
[24] = PAM+ patients without confounding markers, M2698 monotherapy 110 mg, N=2
[25] = PAM+ patients without confounding markers, M2698 monotherapy 160 mg, N=4

## NC(=O)c1cccc2c(N[C@H](CN3CCC3)c3ccc(Cl)c(C(F)(F)F)c3)ncnc12 [M2698]
[1]
  Additive RSV (residual variability), population PK estimate: 3.44
  Proportional RSV (residual variability), population PK estimate: 0.163
[2]; 54 PAM+ patients, monotherapy
  Patients with stable disease: 40.7%
[2]; [3]
  Median PFS: 4.1 months
  Response, NE: 0 (0.0) n (%)
  Response, PD: 1 (33.3) n (%)
  Response, SD at wk 6: 2 (66.7) n (%)
[2]; [4]
  Median PFS: 4.1 months
  Response, NE: 0 (0.0) n (%)
  Response, PD: 0 (0.0) n (%)
  Response, SD at wk 6: 3 (100) n (%)
[2]; [5]
  Median PFS: 1.4 months
  Response, NE: 1 (16.7) n (%)
  Response, PD: 4 (66.7) n (%)
  Response, SD at wk 6: 1 (16.7) n (%)
[2]; [6]
  Median PFS: 1.4 months
  Response, NE: 0 (0.0) n (%)
  Response, PD: 3 (75.0) n (%)
  Response, SD at wk 6: 1 (25.0) n (%)
[2]; [7]
  Median PFS: 1.3 months
  Response, NE: 1 (25.0) n (%)
  Response, PD: 2 (50.0) n (%)
  Response, SD at wk 6: 1 (25.0) n (%)
[2]; [8]
  Median PFS: 1.6 months
  Response, NE: 0 (0.0) n (%)
  Response, PD: 4 (66.7) n (%)
  Response, SD at wk 6: 2 (33.3) n (%)
[2]; [9]
  Median PFS: 4.1 months
  Response, NE: 0 (0.0) n (%)
  Response, PD: 1 (33.3) n (%)
  Response, SD at wk 6: 2 (66.7) n (%)
[2]; [10]
  Median PFS: 2.0 months
  Response, NE: 3 (17.6) n (%)
  Response, PD: 8 (47.1) n (%)
  Response, SD at wk 6: 6 (35.3) n (%)
[2]; [11]
  Median PFS: 2.8 months
  Response, NE: 2 (16.7) n (%)
  Response, PD: 5 (41.7) n (%)
  Response, SD at wk 6: 5 (41.7) n (%)
[2]; [12]
  Median PFS: 6.2 months
  Response, NE: 2 (50.0) n (%)
  Response, PD: 0 (0.0) n (%)
  Response, SD at wk 6: 2 (50.0) n (%)
[2]; [13]
  Median PFS: 2.3 months
  Response, NE: 9 (14.5) n (%)
  Response, PD: 28 (45.2) n (%)
  Response, SD at wk 6: 25 (40.3) n (%)
[2]; [14]
  Response, NE: 0 (0.0) n (%)
  Response, PD: 0 (0.0) n (%)
[2]; [15]
  Median PFS: 1.4 months
  Response, NE: 1 (50.0) n (%)
  Response, PD: 1 (50.0) n (%)
[2]; [16]
  Median PFS: 1.4 months
  Response, NE: 0 (0.0) n (%)
  Response, PD: 1 (100) n (%)
[2]; [17]
  Median PFS: 1.3 months
  Response, NE: 0 (0.0) n (%)
  Response, PD: 1 (100) n (%)
[2]; [18]
  Median PFS: 1.4 months
  Response, NE: 0 (0.0) n (%)
  Response, PD: 2(100.0) n (%)
[2]; [19]
  Median PFS: 1.4 months
  Response, NE: 1 (14.3) n (%)
  Response, PD: 5 (71.4) n (%)
[2]; [20]
  Median PFS: 4.1 months
  Response, NE: 0 (0.0) n (%)
  Response, PD: 1 (50.0) n (%)
  Response, SD at wk 6: 1 (50.0) n (%)
[2]; [21]
  Median PFS: 10.3 months
  Response, NE: 0 (0.0) n (%)
  Response, PD: 0 (0.0) n (%)
  Response, SD at wk 6: 2 (100.0) n (%)
[2]; [22]
  Median PFS: 1.4 months
  Response, NE: 0 (0.0) n (%)
  Response, PD: 2(100.0) n (%)
  Response, SD at wk 6: 0 (0.0) n (%)
[2]; [23]
  Median PFS: 2.8 months
  Response, NE: 0 (0.0) n (%)
  Response, PD: 0 (0.0) n (%)
  Response, SD at wk 6: 1(100.0) n (%)
[2]; [24]
  Median PFS: 15.1 months
  Response, NE: 1 (50.0) n (%)
  Response, PD: 0 (0.0) n (%)
  Response, SD at wk 6: 1 (50.0) n (%)
[2]; [25]
  Response, NE: 0 (0.0) n (%)
  Response, PD: 2 (50.0) n (%)
